From US20260015350A1, “AZAQUINAZOLINE PAN-KRAS INHIBITORS” (Mirati Therapeutics, Inc., priority 2022, published 2026)

Assays:
[1] = tested on: KRas-mediated phosphorylation of ERK in H358 cells; assay: Inhibition of KRas-mediated phosphorylation of ERK (Cisbio HTRF pERK), H358 cells; type: cell-based; settings: Homo sapiens; for IC50: NCI-H358, HTRF pERK
Outline: (§1)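 HTRF readout of phospho-ERK in cell lysates after 3 hrs of compound exposure. Dosing: 10 uM top, 3-fold steps, 10 doses, final DMSO 0.8%. Min control: 0.2 uM Trametinib. Lysis ran 40 mins at 4° C, and antibody detection 2 hrs at room temperature.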

KRas^G12V = target: T1, KRas^G12V (Homo sapiens, UniProt P01116, G12V); assay: KRas binding assay (TR-FRET tracer displacement), KRas G12V
T1 construct: Biotinylated KRas (corresponding to amino acids 1-169, produced at Accelegan Inc.); biotin (biotinylated); purchased Accelegan Inc

[2] = tested on: KRas-mediated phosphorylation of ERK in A549 cells; assay: Inhibition of KRas-mediated phosphorylation of ERK (Cisbio HTRF pERK), A549 cells; type: cell-based; settings: Homo sapiens; for IC50: HTRF pERK
Outline: (§2)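 Signal read by HTRF (d2/Cryptate antibody pair, 2 hr room-temperature incubation on lysate). Cells: 6,000 per well, 3 hr compound exposure. Titration: 10 uM highest, 3-fold, 10 points.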

[3] = tested on: KRas-mediated phosphorylation of ERK in H460 cells; assay: Inhibition of KRas-mediated phosphorylation of ERK (Cisbio HTRF pERK), H460 cells; type: cell-based; settings: Homo sapiens; for IC50: NCI-H460, HTRF pERK
Outline: as §1

[4] = tested on: KRas-mediated phosphorylation of ERK in PSN1 cells; assay: Inhibition of KRas-mediated phosphorylation of ERK (Cisbio HTRF pERK), PSN1 cells; type: cell-based; settings: Homo sapiens
Outline: (§3)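 Phospho-ERK is quantified by HTRF with the Advanced pERK kit. Cells go in at 6,000/well in RPMI plus 10% FBS overnight at 37° C. under 5% CO2, with a 4-hour covered room-temperature incubation ahead of the read.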

[5] = tested on: KRas-mediated phosphorylation of ERK in HCT116 cells; assay: Inhibition of KRas-mediated phosphorylation of ERK (Cisbio HTRF pERK), HCT116 cells; type: cell-based; settings: Homo sapiens; for IC50: HCT-116, HTRF pERK
Outline: as §2

[6] = tested on: KRas-mediated phosphorylation of ERK in AsPC-1 cells; assay: Inhibition of KRas-mediated phosphorylation of ERK (Cisbio HTRF pERK), AsPC-1 cells; type: cell-based; settings: Homo sapiens; for IC50: ASPC1, AsPC-1 cells, HTRF pERK
Outline: as §1

KRas^G12D = target: T2, KRas^G12D (Homo sapiens, UniProt P01116, G12D); assay: KRas binding assay (TR-FRET tracer displacement), KRas G12D
T2 construct: Biotinylated KRas (corresponding to amino acids 1-169, produced at Accelegan Inc.); biotin (biotinylated); purchased Accelegan Inc

KRas^G12R = target: T3, KRas^G12R (Homo sapiens, UniProt P01116, G12R); assay: KRas binding assay (TR-FRET tracer displacement), KRas G12R
T3 construct: Biotinylated KRas (corresponding to amino acids 1-169, produced at Accelegan Inc.); biotin (biotinylated); purchased Accelegan Inc

[7] = tested on: KRas-mediated phosphorylation of ERK in H727 cells; assay: Inhibition of KRas-mediated phosphorylation of ERK (Cisbio HTRF pERK), H727 cells; type: cell-based; settings: Homo sapiens; for IC50: NCI-H727, H727 cells, HTRF pERK
Outline: as §1

[8] = tested on: KRas-mediated phosphorylation of ERK in MKN1 cells; assay: Inhibition of KRas-mediated phosphorylation of ERK (Cisbio HTRF pERK), MKN1 cells; type: cell-based; settings: Homo sapiens, MKN-1
Outline: as §3

T3 sequence (P01116 1-169 isoform P01116-2 G12R): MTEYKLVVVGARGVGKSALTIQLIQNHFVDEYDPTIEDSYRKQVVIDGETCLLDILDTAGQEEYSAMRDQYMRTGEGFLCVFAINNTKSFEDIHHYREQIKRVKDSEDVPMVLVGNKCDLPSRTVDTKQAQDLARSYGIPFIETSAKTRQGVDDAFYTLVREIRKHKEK
T1 sequence (P01116 1-169 isoform P01116-2 G12V): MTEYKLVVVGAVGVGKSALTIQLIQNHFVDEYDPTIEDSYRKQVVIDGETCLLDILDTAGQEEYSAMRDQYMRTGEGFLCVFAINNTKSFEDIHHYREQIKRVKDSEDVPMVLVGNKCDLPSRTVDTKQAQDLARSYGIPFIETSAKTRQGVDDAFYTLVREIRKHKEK
T2 sequence (P01116 1-169 isoform P01116-2 G12D): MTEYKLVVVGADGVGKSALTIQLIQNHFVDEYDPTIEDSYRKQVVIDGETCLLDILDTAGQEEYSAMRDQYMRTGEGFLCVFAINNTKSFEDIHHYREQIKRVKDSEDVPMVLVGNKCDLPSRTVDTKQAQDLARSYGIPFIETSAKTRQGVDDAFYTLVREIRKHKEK

C[C@@H]1C[C@@H]1c1c(Cl)cc(O)cc1-c1ncc2c(N3CCC[C@@](C)(O)C3)nc(OC[C@@]34CCCN3C[C@H](F)C4)nc2c1F [Example 805, (R)-1-(7-(3-chloro-5-hydroxy-2-((1S,2R)-2-methylcyclopropyl)phenyl)-8-fluoro-2-(((2R,7aS)-2-fluorotetrahydro-1H-pyrrolizin-7a(5H)-yl)methoxy)pyrido[4,3-d]pyrimidin-4-yl)-3-methylpiperidin-3-ol]
IC50 [1]: 8 nM
IC50 (KRas^G12V): < 2 nM
IC50 [2]: 23 nM
IC50 [3]: 10 nM
IC50 [4]: 812 nM
IC50 [5]: 24 nM
IC50 [6]: 13 nM
IC50 (KRas^G12D): < 2 nM
IC50 (KRas^G12R): 3 nM
IC50 [7]: 29 nM
IC50 [8]: 1 nM

CCc1c(F)ccc2cc(O)cc(-c3ncc4c(N5CCC[C@@](C)(O)C5)nc(OC[C@]56CCCN5[C@H](CNS(=O)(=O)N(C)C)CC6)nc4c3F)c12 [Example 720, N,N-dimethyl-(((3S,7aR)-7a-(((7-(8-ethyl-7-fluoro-3-hydroxynaphthalen-1-yl)-8-fluoro-4-((R)-3-hydroxy-3-methylpiperidin-1-yl)pyrido[4,3-d]pyrimidin-2-yl)oxy)methyl)hexahydro-1H-pyrrolizin-3-yl)methyl)aminosulfonamide]
inhibition at 0.1 µM ([1]; NCI-H358, 3 h, single point, 100 nM compound, 3 hrs): 85%
IC50 (KRas^G12V): < 2 nM
inhibition at 0.1 µM ([2]; A549, 3 h, single point, 100 nM compound, 3 hrs): 64%
inhibition at 0.1 µM ([3]; NCI-H460, 3 h, single point, 100 nM compound, 3 hrs): 80%
IC50 [4]: 1760 nM
inhibition at 0.1 µM ([5]; HCT-116, 3 h, single point, 100 nM compound, 3 hrs): 51%
inhibition at 0.1 µM ([6]; ASPC1, 3 h, single point, 100 nM compound, 3 hrs, AsPC-1 cells): 70%
IC50 [6]: 19 nM
IC50 (KRas^G12D): < 2 nM
IC50 (KRas^G12R): < 2 nM
inhibition at 0.1 µM ([7]; NCI-H727, 3 h, single point, 100 nM compound, 3 hrs, H727 cells): 43%
IC50 [7]: 47 nM
IC50 [8]: 6 nM

CCc1c(F)ccc2cc(O)cc(-c3ncc4c(N5CC6CCC(C(N)=O)(C6)C5)nc(OC[C@@]56CCCN5C[C@H](F)C6)nc4c3F)c12 (stereo partly drawn) [Example 834, 3-(7-(8-ethyl-7-fluoro-3-hydroxynaphthalen-1-yl)-8-fluoro-2-(((2R,7aS)-2-fluorotetrahydro-1H-pyrrolizin-7a(5H)-yl)methoxy)pyrido[4,3-d]pyrimidin-4-yl)-3-azabicyclo[3.2.1]octane-1-carboxamide]
IC50 [1]: 186 nM
IC50 (KRas^G12V): 3 nM
IC50 [2]: 2750 nM
IC50 [3]: 797 nM
IC50 [4]: > 10000 nM
IC50 [5]: 1200 nM
IC50 [6]: 3450 nM
IC50 (KRas^G12D): 8 nM
IC50 (KRas^G12R): 5 nM
IC50 [7]: 1140 nM
IC50 [8]: 87 nM

CCc1c(F)ccc2cc(O)cc(-c3ncc4c(N5CC6CCC(C(=O)NC)(C6)C5)nc(OC[C@@]56CCCN5C[C@H](F)C6)nc4c3F)c12 (stereo partly drawn) [Example 889, 3-(7-(8-ethyl-7-fluoro-3-hydroxynaphthalen-1-yl)-8-fluoro-2-(((2R,7aS)-2-fluorotetrahydro-1H-pyrrolizin-7a(5H)-yl)methoxy)pyrido[4,3-d]pyrimidin-4-yl)-N-methyl-3-azabicyclo[3.2.1]octane-1-carboxamide]
IC50 [1]: 24 nM
IC50 (KRas^G12V): < 2 nM
IC50 [2]: 365 nM
IC50 [3]: 134 nM
IC50 [4]: > 10000 nM
IC50 [5]: 188 nM
IC50 [6]: 600 nM
IC50 (KRas^G12D): 4 nM
IC50 (KRas^G12R): 5 nM
IC50 [7]: 129 nM
IC50 [8]: 55 nM

CCc1c(F)ccc2cc(O)cc(-c3ncc4c(N5CCC[C@@](C)(O)C5)nc(OC[C@@]56CCCN5[C@@H](CF)CC6)nc4c3F)c12 [Example 878, (R)-1-(7-(8-ethyl-7-fluoro-3-hydroxynaphthalen-1-yl)-8-fluoro-2-(((3R,7aS)-3-(fluoromethyl)tetrahydro-1H-pyrrolizin-7a(5H)-yl)methoxy)pyrido[4,3-d]pyrimidin-4-yl)-3-methylpiperidin-3-ol]
IC50 [1]: 52 nM
IC50 (KRas^G12V): 3 nM
IC50 [2]: 125 nM
IC50 [3]: 53 nM
IC50 [4]: 4000 nM
IC50 [5]: 186 nM
IC50 [6]: 43 nM
IC50 (KRas^G12D): 3 nM
IC50 (KRas^G12R): 6 nM
IC50 [7]: 83 nM
IC50 [8]: 16 nM

CCc1c(F)ccc2cc(O)cc(-c3ncc4c(N5CC6CCC(CO)(C6)C5)nc(OC[C@@]56CCCN5C[C@H](F)C6)nc4c3F)c12 (stereo partly drawn) [Example 812, 5-ethyl-6-fluoro-4-(8-fluoro-2-(((2R,7aS)-2-fluorotetrahydro-1H-pyrrolizin-7a(5H)-yl)methoxy)-4-(1-(hydroxymethyl)-3-azabicyclo[3.2.1]octan-3-yl)pyrido[4,3-d]pyrimidin-7-yl)naphthalen-2-ol]
IC50 [1]: 177 nM
IC50 (KRas^G12V): 4 nM
IC50 [2]: 922 nM
IC50 [3]: 166 nM
IC50 [4]: > 10000 nM
IC50 [5]: 324 nM
IC50 [6]: 743 nM
IC50 (KRas^G12D): 12 nM
IC50 (KRas^G12R): 6 nM
IC50 [7]: 363 nM
IC50 [8]: 68 nM

CN(C)CC1(COc2nc(N3CCCC4(CCO4)C3)c3cnc(-c4cc(O)cc5ccc(F)c(Cl)c45)c(F)c3n2)CC1 (stereo not shown) [Example 854, 5-chloro-4-(2-((1-((dimethylamino)methyl)cyclopropyl)methoxy)-8-fluoro-4-(1-oxa-6-azaspiro[3.5]nonan-6-yl)pyrido[4,3-d]pyrimidin-7-yl)-6-fluoronaphthalen-2-ol]
IC50 [1]: 11 nM
IC50 (KRas^G12V): < 2 nM
IC50 [2]: 36 nM
IC50 [3]: 21 nM
IC50 [4]: 3690 nM
IC50 [5]: 40 nM
IC50 [6]: 20 nM
IC50 (KRas^G12D): < 2 nM
IC50 (KRas^G12R): < 2 nM
IC50 [7]: 48 nM
IC50 [8]: 6 nM

CCc1c(F)ccc2cc(O)cc(-c3ncc4c(N5CCC[C@@](C)(O)C5)nc(OC[C@@]56CCCN5[C@H](COCC5CCC5)CC6)nc4c3F)c12 [Example 852, (R)-1-(2-(((3S,7aS)-3-((cyclobutylmethoxy)methyl)tetrahydro-1H-pyrrolizin-7a(5H)-yl)methoxy)-7-(8-ethyl-7-fluoro-3-hydroxynaphthalen-1-yl)-8-fluoropyrido[4,3-d]pyrimidin-4-yl)-3-methylpiperidin-3-ol]
IC50 [1]: 12 nM
IC50 (KRas^G12V): < 2 nM
IC50 [2]: 68 nM
IC50 [3]: 42 nM
IC50 [4]: 923 nM
IC50 [5]: 38 nM
IC50 [6]: 35 nM
IC50 (KRas^G12D): < 2 nM
IC50 (KRas^G12R): < 2 nM
IC50 [7]: 109 nM
IC50 [8]: 5 nM

CCc1c(F)ccc2cc(O)cc(-c3ncc4c(N5CCOC[C@@]6(CCO6)C5)nc(OC[C@@]56CCCN5C[C@H](F)C6)nc4c3F)c12 [Example 836, 5-ethyl-6-fluoro-4-(8-fluoro-2-(((2R,7aS)-2-fluorotetrahydro-1H-pyrrolizin-7a(5H)-yl)methoxy)-4-((R)-1,6-dioxa-9-azaspiro[3.6]decan-9-yl)pyrido[4,3-d]pyrimidin-7-yl)naphthalen-2-ol]
IC50 [1]: 22 nM
IC50 (KRas^G12V): 6 nM
IC50 [2]: 69 nM
IC50 [3]: 32 nM
IC50 [4]: 9790 nM
IC50 [5]: 119 nM
IC50 [6]: 386 nM
IC50 (KRas^G12D): 24 nM
IC50 (KRas^G12R): 4 nM
IC50 [7]: 231 nM
IC50 [8]: 19 nM

CCc1c(F)ccc2cc(O)cc(-c3ncc4c(N5CC6CCC(C5)C6CC(=O)N(C)C)nc(OC[C@@]56CCCN5C[C@H](F)C6)nc4c3F)c12 (stereo partly drawn) [Example 860, 2-((1R,5S,8S)-3-(7-(8-ethyl-7-fluoro-3-hydroxynaphthalen-1-yl)-8-fluoro-2-(((2R,7aS)-2-fluorotetrahydro-1H-pyrrolizin-7a(5H)-yl)methoxy)pyrido[4,3-d]pyrimidin-4-yl)-3-azabicyclo[3.2.1]octan-8-yl)-N,N-dimethylacetamide]
IC50 [1]: 455 nM
IC50 (KRas^G12V): 13 nM
IC50 [2]: 2760 nM
IC50 [3]: 395 nM
IC50 [4]: > 10000 nM
IC50 [5]: 600 nM
IC50 [6]: 2600 nM
IC50 (KRas^G12D): 91 nM
IC50 (KRas^G12R): 68 nM
IC50 [7]: 1120 nM
IC50 [8]: 7 nM
